We go through 20 molecules from patent US20250230147A1, “LACTAMS AS CBL-B INHIBITORS” (Genentech, Inc., priority 2021, published 2025).

Structures are written as SMILES. Where a name gives a salt, the structure may show the parent alone.

The target in test [1] is Cbl-b (Homo sapiens (Human), UniProt Q13191). Description: Cbl-b LCK Ub TR-FRET assay (Cbl-b Lck HTRF). Format: biochemical. The gist of the method: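 TR-FRET (340 nm excitation, 615/665 nm emission) read after adding HA-ubiquitin–UBE2D2 thioester, anti-HA-D2 and streptavidin-Eu. Beforehand, compounds incubated 60 min with biotinylated Cbl-b, then 90 min with His-LCK and ATP (1 mM in 2× mix); IC50 from 10 concentrations, DMSO high and no-LCK low controls.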
On the technique in general: Time-resolved FRET reads energy transfer from a long-lived donor to a nearby acceptor.

In test [2] the target is c-Cbl (Homo sapiens (Human), UniProt P22681). The experiment in a line: C-Cbl LCK Ub TR-FRET assay (c-cbl Lck HTRF). Format: biochemical. As to conditions: for (fold-selectivity): C-cbl Lck HTRF IC50 relative to Cbl-b Lck HTRF IC50. Put shortly:
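Detection reagents added, brief spin, 20 min RT. IC50 fit normalized to no-LCK (low) and DMSO (high) controls.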

Sequence of Cbl-b (Q13191 40-426): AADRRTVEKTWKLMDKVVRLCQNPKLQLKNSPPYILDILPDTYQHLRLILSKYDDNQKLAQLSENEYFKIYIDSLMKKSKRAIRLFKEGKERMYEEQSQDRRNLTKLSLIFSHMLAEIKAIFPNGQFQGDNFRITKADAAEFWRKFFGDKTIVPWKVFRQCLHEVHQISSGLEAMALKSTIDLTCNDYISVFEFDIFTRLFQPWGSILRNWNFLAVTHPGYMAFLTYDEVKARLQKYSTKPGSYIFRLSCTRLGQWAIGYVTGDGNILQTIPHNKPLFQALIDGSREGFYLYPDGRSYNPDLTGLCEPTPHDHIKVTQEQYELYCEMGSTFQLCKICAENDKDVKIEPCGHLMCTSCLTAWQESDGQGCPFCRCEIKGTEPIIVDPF
Sequence of c-Cbl (P22681 47-435): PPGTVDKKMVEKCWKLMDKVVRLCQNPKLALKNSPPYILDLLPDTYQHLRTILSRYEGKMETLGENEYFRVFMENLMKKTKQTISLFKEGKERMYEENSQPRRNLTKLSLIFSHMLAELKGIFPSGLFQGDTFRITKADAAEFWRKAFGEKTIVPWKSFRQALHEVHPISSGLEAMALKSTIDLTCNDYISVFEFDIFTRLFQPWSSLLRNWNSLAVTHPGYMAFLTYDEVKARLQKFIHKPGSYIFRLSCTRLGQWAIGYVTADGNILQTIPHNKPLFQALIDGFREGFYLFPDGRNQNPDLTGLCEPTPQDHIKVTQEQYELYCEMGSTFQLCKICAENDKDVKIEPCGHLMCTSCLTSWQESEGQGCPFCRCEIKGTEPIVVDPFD

In general, IC50 refers to the concentration that gives 50% inhibition. A high value points to weaker potency. In turn, `Cn1cnnc1[C@H](F)C1(c2cccc(N3Cc4c(cc(CN5CC6(C5)CC6(F)F)cc4C(F)(F)F)C3=O)c2)COC1` [Compound 153, (R)-6-((1,1-difluoro-5-azaspiro[2.3]hexan-5-yl)methyl)-2-(3-(3-(fluoro(4-methyl-4H-1,2,4-triazol-3-yl)methyl)oxetan-3-yl)phenyl)-4-(trifluoromethyl)isoindolin-1-one] came in with a 50% inhibitory concentration (IC50) in test [1] of 0.027 µM. In test [2], 0.06 µM corresponded to half-maximal inhibition (IC50) and the “(fold-selectivity)” value was determined as 2.2x.

As for `CN1CCN(Cc2cc3c(c(C(F)(F)F)c2)CN(c2cccc(C4(Cc5nncn5C)CC(F)(F)C4)c2)C3=O)[C@H](C2CC2)C1` [Compound 433, (R)-6-((2-cyclopropyl-4-methylpiperazin-1-yl)methyl)-2-(3-(3,3-difluoro-1-((4-methyl-4H-1,2,4-triazol-3-yl)methyl)cyclobutyl)phenyl)-4-(trifluoromethyl)isoindolin-1-one], the results for the IC50 in test [1] and in test [2] were 0.094 µM and 0.12 µM, respectively. The “(fold-selectivity)” value in test [2] is on record as “(1.3x)”.

Molecule `C[C@H](N)c1cc2c(c(C(F)(F)F)c1)CN(c1cccc(C3([C@@H](F)c4nncn4C)COC3)c1)C2=O` [Compound 192, 6-((S)-1-aminoethyl)-2-(3-(3-((R)-fluoro(4-methyl-4H-1,2,4-triazol-3-yl)methyl)oxetan-3-yl)phenyl)-4-(trifluoromethyl)isoindolin-1-one] returned an IC50 in test [1] of 0.032 µM. In addition, in test [2], the IC50 is 0.053 µM and the “(fold-selectivity)” value was determined as 1.6x.

In test [1], `CC(C)[C@H]1CN(CC(F)(F)F)CCN1Cc1cc2c(c(C(F)(F)F)c1)CN(c1cccc(C3([C@@H](F)c4nncn4C)COC3)c1)C2=O` [Compound 202, 2-(3-(3-((R)-fluoro(4-methyl-4H-1,2,4-triazol-3-yl)methyl)oxetan-3-yl)phenyl)-6-(((S)-2-isopropyl-4-(2,2,2-trifluoroethyl)piperazin-1-yl)methyl)-4-(trifluoromethyl)isoindolin-1-one] gave an IC50 of 0.15 µM. Besides, in test [2], the IC50 stood at 0.4 µM and the “(fold-selectivity)” value worked out at 2.6x.

In test [1], `CC(C)[C@@H]1CNCCN1Cc1cc2c(c(C(F)(F)F)c1)CN(c1cccc(C3([C@H](F)c4nncn4C)COC3)c1)C2=O` [Compound 95, 2-(3-(3-((S)-fluoro(4-methyl-4H-1,2,4-triazol-3-yl)methyl)oxetan-3-yl)phenyl)-6-(((R)-2-isopropylpiperazin-1-yl)methyl)-4-(trifluoromethyl)isoindolin-1-one] registered a half-inhibitory concentration (IC50) of 0.27 µM. Further, in test [2], the IC50 amounted to 0.41 µM and the “(fold-selectivity)” value is 1.5x.

Regarding `Cn1cnnc1CC1(c2cc(Cl)nc(N3Cc4c(cc(CNC5(C)CCC5)cc4C(F)(F)F)C3=O)c2)CCC1` [Compound 351, 2-(6-chloro-4-(1-((4-methyl-4H-1,2,4-triazol-3-yl)methyl)cyclobutyl)pyridin-2-yl)-6-(((1-methylcyclobutyl)amino)methyl)-4-(trifluoromethyl)isoindolin-1-one formate], the IC50 turned out to be 0.033 µM in test [1] and 0.019 µM in test [2].

On to `C[C@H]1CN(Cc2cc3c(c(C(F)(F)F)c2)CN(c2cccc(C4([C@@H](F)c5nncn5C)COC4)c2)C3=O)CCCO1` [Compound 118, 2-(3-(3-((R)-fluoro(4-methyl-4H-1,2,4-triazol-3-yl)methyl)oxetan-3-yl)phenyl)-6-(((S)-2-methyl-1,4-oxazepan-4-yl)methyl)-4-(trifluoromethyl)isoindolin-1-one], for which the half-inhibitory concentration (IC50) in test [1] was 0.007 µM; in test [2], 0.008 µM. Further, in test [2], the “(fold-selectivity)” value is given as 1.1x.

As for `CC(C)[C@H]1CN(C)CCN1Cc1cc2c(c(C(F)(F)F)c1)CN(c1cccc([C@]3([C@@H](F)c4nncn4C)CCO3)c1)C2=O` (single isomer, unassigned) [Compound 261], the IC50 in test [1] was 0.14 µM. Moreover, in test [2], 0.15 µM corresponded to half-maximal inhibition (IC50) and the “(fold-selectivity)” value is on record as “(1.1x)”.

Regarding `CC(C)[C@H]1CN(C)CCN1Cc1cc2c(c(C(F)(F)F)c1)CN(c1cc(C3(Cc4nncn4C)CC(F)(F)C3)cc(N(C)C)n1)C2=O` [Compound 280, (S)-2-(4-(3,3-difluoro-1-((4-methyl-4H-1,2,4-triazol-3-yl)methyl)cyclobutyl)-6-(dimethylamino)pyridin-2-yl)-6-((2-isopropyl-4-methylpiperazin-1-yl)methyl)-4-(trifluoromethyl)isoindolin-1-one], the IC50 in test [1] is 0.012 µM. Further, in test [2], half-maximal inhibition (IC50) was put at 0.011 µM and the “(fold-selectivity)” value is “(0.96x)”.

Take `Cn1cnnc1[C@H](F)C1(c2cccc(N3Cc4c(I)cccc4C3=O)c2)COC1` [Compound 205, (R)-2-(3-(3-(fluoro(4-methyl-4H-1,2,4-triazol-3-yl)methyl)oxetan-3-yl)phenyl)-4-iodoisoindolin-1-one]: it took 0.29 µM to reach half-maximal inhibition in test [1] (IC50). Also, in test [2], 0.77 µM corresponded to half-maximal inhibition (IC50) and the “(fold-selectivity)” value worked out at 2.7x.

`CCOc1cc(C2(Cc3nncn3C)COC2)cc(N2Cc3c(cc(CNC4(C)CCC4)cc3C(F)(F)F)C2=O)n1` [Compound 304, 2-(6-ethoxy-4-(3-((4-methyl-4H-1,2,4-triazol-3-yl)methyl)oxetan-3-yl)pyridin-2-yl)-6-(((1-methylcyclobutyl)amino)methyl)-4-(trifluoromethyl)isoindolin-1-one] had an IC50 in test [1] of 0.011 µM. Moreover, in test [2], the midpoint of inhibition, the IC50, lay at 0.0079 µM and the “(fold-selectivity)” value is recorded as “(0.73x)”.

For the molecule `COCC1CCN(Cc2cc3c(c(C(F)(F)F)c2)CN(c2cccc(C4([C@@H](F)c5nncn5C)COC4)c2)C3=O)CC1` [Compound 145, (R)-2-(3-(3-(fluoro(4-methyl-4H-1,2,4-triazol-3-yl)methyl)oxetan-3-yl)phenyl)-6-((4-(methoxymethyl)piperidin-1-yl)methyl)-4-(trifluoromethyl)isoindolin-1-one], in test [1], the IC50 was 0.13 µM. Besides, in test [2], 0.18 µM corresponded to half-maximal inhibition (IC50) and the “(fold-selectivity)” value is 1.4x.

Regarding `Cn1cnnc1C(F)(F)C1(c2cccc(N3Cc4c(cc(CNC5(C)CCC5)cc4C(F)(F)F)C3=O)c2)COC1` [Compound 287, 2-(3-(3-(difluoro(4-methyl-4H-1,2,4-triazol-3-yl)methyl)oxetan-3-yl)phenyl)-6-(((1-methylcyclobutyl)amino)methyl)-4-(trifluoromethyl)isoindolin-1-one], the IC50 came to 0.032 µM in test [1] and 0.043 µM in test [2]. Also, in test [2], the “(fold-selectivity)” value was “(1.4x)”.

`CCOc1cc(C2(Cc3nncn3C)CCC2)cc(N2Cc3c(cc(CNC4(C)CCC4)cc3C(F)(F)F)C2=O)n1` [Compound 359, 2-(6-ethoxy-4-(1-((4-methyl-4H-1,2,4-triazol-3-yl)methyl)cyclobutyl)pyridin-2-yl)-6-(((1-methylcyclobutyl)amino)methyl)-4-(trifluoromethyl)isoindolin-1-one] gave an IC50 in test [1] of 0.011 µM. Besides, in test [2], 0.0053 µM corresponded to half-maximal inhibition (IC50) and the “(fold-selectivity)” value is listed as “(0.71x)”.

In turn, `CC(C)[C@@H]1CN(Cc2cc3c(c(C(F)(F)F)c2)CN(c2cccc(C4([C@@H](F)c5nncn5C)COC4)c2)C3=O)CCN1C` [Compound 406, 2-(3-(3-((R)-fluoro(4-methyl-4H-1,2,4-triazol-3-yl)methyl)oxetan-3-yl)phenyl)-6-(((R)-3-isopropyl-4-methylpiperazin-1-yl)methyl)-4-(trifluoromethyl)isoindolin-1-one] returned an IC50 in test [1] of 0.075 µM. Further, in test [2], the IC50 stood at 0.084 µM and the “(fold-selectivity)” value is reported as “(1.1x)”.

Molecule `C[C@H](N)c1cc2c(c(C(F)(F)F)c1)CN(c1cccc(C3(Cc4nncn4C)CC(F)(F)C3)c1)C2=O` [Compound 384, (S)-6-(1-aminoethyl)-2-(3-(3,3-difluoro-1-((4-methyl-4H-1,2,4-triazol-3-yl)methyl)cyclobutyl)phenyl)-4-(trifluoromethyl)isoindolin-1-one] registered an IC50 in test [1] of 0.022 µM. Besides, in test [2], the IC50 was 0.025 µM and the “(fold-selectivity)” value is “(1.1x)”.

In test [1], `CCOc1cc(C2(Cc3nncn3C)COC2)cc(N2Cc3c(cc(CN4CCC(F)(F)[C@H](C)C4)cc3C(F)(F)F)C2=O)n1` [Compound 375, (R)-6-((4,4-difluoro-3-methylpiperidin-1-yl)methyl)-2-(6-ethoxy-4-(3-((4-methyl-4H-1,2,4-triazol-3-yl)methyl)oxetan-3-yl)pyridin-2-yl)-4-(trifluoromethyl)isoindolin-1-one] displayed a half-inhibitory concentration (IC50) of 0.022 µM. In test [2], the 50% inhibitory concentration (IC50) amounted to 0.014 µM and the “(fold-selectivity)” value was “(0.65x)”.

For `CC1(NCc2cc3c(c(C(F)(F)F)c2)CN(c2cccc(C4(Cc5nncn5C5CC5)CC(F)(F)C4)c2)C3=O)CCC1` [Compound 492, 2-(3-(1-((4-cyclopropyl-4H-1,2,4-triazol-3-yl)methyl)-3,3-difluorocyclobutyl)phenyl)-6-(((1-methylcyclobutyl)amino)methyl)-4-(trifluoromethyl)isoindolin-1-one], in test [1], the concentration for half-maximal inhibition (IC50) was found to be 0.057 µM. In test [2], the IC50 came to 0.06 µM and the “(fold-selectivity)” value is “(1.0x)”.

For the molecule `Cn1cnnc1[C@H](F)C1(c2cccc(N3Cc4c(cc(CN5CCOCC5)cc4C(F)(F)F)C3=O)c2)COC1` [Compound 88, (R)-2-(3-(3-(fluoro(4-methyl-4H-1,2,4-triazol-3-yl)methyl)oxetan-3-yl)phenyl)-6-(morpholinomethyl)-4-(trifluoromethyl)isoindolin-1-one], the IC50 was found to be 0.1 µM in test [1] and 0.21 µM in test [2]. The “(fold-selectivity)” value in test [2] is given as 2.1x.

As to `CC(C)[C@H]1CN(C)CCN1Cc1cc2c(c(C(F)(F)F)c1)CN(c1cccc(C3(Cc4nncn4C(F)F)COC3)c1)C2=O` [Compound 266, (S)-2-(3-(3-((4-(difluoromethyl)-4H-1,2,4-triazol-3-yl)methyl)-oxetan-3-yl)phenyl)-6-((2-isopropyl-4-methylpiperazin-1-yl)methyl)-4-(trifluoromethyl)-isoindolin-1-one], the IC50 in test [1] stood at 0.013 µM. Moreover, in test [2], half-maximal inhibition (IC50) required 0.0097 µM and the “(fold-selectivity)” value is on record as “(0.76x)”.
